This is an account of results in ChEMBL document CHEMBL3352071, “Benzimidazoles: novel mycobacterial gyrase inhibitors from scaffold morphing” (ACS Med Chem Lett, 2014).

The structures appear in SMILES notation. Converted amounts (≈) assume the structure as drawn. Some results are limits rather than exact numbers.

Holding throughout (format): functional
Assay [1] deals with Mycobacterium tuberculosis. Nature of the assay: Antimicrobial activity against moxicillin resistant Mycobacterium tuberculosis H37Rv ATCC 27294 containing DNA gyrase G88N mutant.
The test system of assay [2] is Mycobacterium tuberculosis. As to the kind of experiment: Antimicrobial activity against 5-(((3S,4R)-3-fluoro-1-(2-(7-methoxy-2-oxo-1,5-naphthyridin-1(2H)-yl)ethyl)piperidin-4-ylamino)methyl)-2-methylnicotinonitrile resistant Mycobacterium tuberculosis H37Rv ATCC 27294 containing DNA gyrase D89N mutant.
Assay [3] has as its system Mycobacterium tuberculosis. As to the kind of experiment: Antimicrobial activity against 2-oxo-1-(2-(4-((3-oxo-3,4-dihydro-2H-pyrido[3,2-b][1,4]oxazin-6-yl)methylamino)piperidin-1-yl)ethyl)-1,2-dihydroquinoline-7-carbonitrile resistant Mycobacterium tuberculosis H37Rv ATCC 27294 containing DNA gyrase A74V mutant.

What is called MIC is the least concentration at which growth counts as inhibited. The low end stands for greater potency, the high end for weaker potency. Consider `N#Cc1ccc2ccc(=O)n(CCN3CCC(NCc4ccc5c(n4)NC(=O)CO5)CC3)c2c1`, for which the figures for the MIC in assay [1], in assay [2] and in assay [3] were under 0.19 µM, over 100 µM and 4 µM (≈ 1.83 µg/mL), respectively.

For the molecule `COc1cnc2ccc(=O)n(CCN3CCC(c4nc5cc(C(F)(F)F)ccc5[nH]4)CC3)c2c1`, the MIC in assay [1] was 0.78 µM (≈ 0.368 µg/mL); in assay [2], 25 µM (≈ 11.8 µg/mL); in assay [3] it was 50 µM (≈ 23.6 µg/mL).

Consider `COc1cnc2ccc(=O)n(CCN3CCC(c4nc5cc(Cl)c(F)cc5[nH]4)CC3)c2c1`, for which the values for the MIC in assay [1], in assay [2] and in assay [3] were 0.06 µM (≈ 0.0274 µg/mL), 25 µM (≈ 11.4 µg/mL) and 100 µM (≈ 45.6 µg/mL), respectively.

On to `COc1cnc2ccc(=O)n(CCN3CCC(c4nc5cc(C#N)c(C)cc5[nH]4)CC3)c2c1`, for which the results for the MIC in assay [1], in assay [2] and in assay [3] were 0.78 µM (≈ 0.345 µg/mL), 100 µM (≈ 44.3 µg/mL) and over 100 µM, respectively.

In the case of `COc1cnc2ccc(=O)n(CCN3CCN(c4nc5cc(C#N)c(C)cc5[nH]4)CC3)c2c1`, the MIC in assay [1] is 1.56 µM (≈ 0.692 µg/mL); in assay [2] it was 100 µM (≈ 44.4 µg/mL); in assay [3], over 100 µM.

Regarding `NS(=O)(=O)c1ccc(Oc2cnc3ccc(=O)n(CCN4CCC(c5nc6cc(C(F)(F)F)ccc6[nH]5)CC4)c3c2)cc1`, the MIC came to 0.39 µM (≈ 0.239 µg/mL) in assay [1], 12.5 µM (≈ 7.66 µg/mL) in assay [2] and 25 µM (≈ 15.3 µg/mL) in assay [3].

Consider `O=c1ccc2ncc(F)cc2n1CCN1CCC(NCc2ccc(C(F)(F)F)nc2)CC1`, for which the MIC in assay [1] was under 0.19 µM; in assay [2] it was over 100 µM; in assay [3] it was 2 µM (≈ 0.899 µg/mL).

As to `O=C(O)c1cn(C2CC2)c2cc(N3CCNCC3)c(F)cc2c1=O` [CIPROFLOXACIN], the MIC stood at 8 µM (≈ 2.65 µg/mL) in assay [1], 16 µM (≈ 5.3 µg/mL) in assay [2] and 0.5 µM (≈ 0.166 µg/mL) in assay [3].

For `NNC(=O)c1ccncc1` [ISONIAZID], the figures for the MIC in assay [1], in assay [2] and in assay [3] were 0.06 µM (≈ 0.00823 µg/mL), 0.03 µM (≈ 0.00411 µg/mL) and 0.06 µM (≈ 0.00823 µg/mL), respectively.

Turning to `COc1c(N2C[C@@H]3CCCN[C@@H]3C2)c(F)cc2c(=O)c(C(=O)O)cn(C3CC3)c12` [MOXIFLOXACIN], the MIC in assay [1] worked out at 4 µM (≈ 1.61 µg/mL); in assay [2], 2 µM (≈ 0.803 µg/mL); in assay [3], 0.25 µM (≈ 0.1 µg/mL).

Take `CO[C@H]1/C=C/O[C@@]2(C)Oc3c(C)c(O)c4c(O)c(c(/C=N/N5CCN(C)CC5)c(O)c4c3C2=O)NC(=O)/C(C)=C\C=C\[C@H](C)[C@H](O)[C@@H](C)[C@@H](O)[C@@H](C)[C@H](OC(C)=O)[C@@H]1C` [RIFAMPIN]: the MIC in assay [1] and in assay [3] was 0.008 µM (≈ 0.00658 µg/mL) throughout.
